Values of other authors as cited in patent US6565840B1, “Monomeric compositions effective as wound closure devices” (Closure Medical Corporation, priority 1996, dated 2003).

- pKa: 5.9
SMILES: CC(=O)C(C(C)=O)C(C)=O [triacetylmethane]
